In patent US9416347B2, “Method of treating bacterial contamination in a microalgae culture with pH shock” (Heliae Development LLC, priority 2014, dated 2016):
Where a name gives a salt, the structure may show the parent alone. Read-outs that look alike come from different tables or passages of the source.

Tests used:
[1] = tested on: Chlorella sp.; conditions: pH lowered from about 7.5 to 3.5 for 15 minutes, raised back with 5M NaOH
Method: The first 400 ml culture was maintained as an untreated control at a pH of about 7.5. […] The pH treatments were applied directly to the cultures, without previous concentration of the microalgae or subsequent dilution through inoculation into fresh culture media. All cultures were incubated with shaking at 100 rpm in 5% carbon dioxide and 25° C. […] 100 μM photon/m^2 s of light was also provided to create mixotrophic growth conditions. The cultures were monitored for 4 days (96 hours with dry weight samples taken at 0, 48, and 96 hours). Live bacteria count samples were taken at 0 and 48 hours, and quantified using aerobic colony forming units (CFU) obtained from plate counts utilizing Petrifilm available from 3M (St. Paul, Minn.). A bacteria to microalgae ratio was also quantified using guava flow cytometry.

[2] = tested on: Chlorella sp.; conditions: culture at 1,029 mg/L acetate, pH 3.5 for 15 minutes, returned to 7.5 with 2 M NaOH
Method: The pH treated culture samples were maintained at the culture pH of 3.5 for 15 minutes before returning the culture pH to 7.5 by adding 2 M NaOH.
The pH treatment was applied directly into the culture, without previous concentration or subsequent dilution through inoculation into a fresh media. All cultures were incubated with shaking at 100 rpm in 5% carbon dioxide and 25° C. […] 100 μM photon/m^2 s of light was also provided to create mixotrophic growth conditions. The cultures were monitored for 4 days (96 hours with dry weight samples taken at 0, 48, and 96 hours). Residual acetate analyses were carried at the end of the experiment.

[3] = tested on: Vampirovibrio chlorellavorus; conditions: culture receiving the second pH treatment, 85% before treatment
Source text: (§1) Some bacteria in the microalgae culture may attach to the cell wall of the microalgae, eventually lysing the cell wall of the microalgae and killing the microalgae. […] An example of bacteria known to attach to microalgae is Vampirovibrio chlorellavorus.
Samples were taken every two days to determine the cell dry weight (g/L) of the cultures.

[4] = tested on: bacteria attached to Chlorella
Source text: as §1

[5] = tested on: Chlorella sp.; conditions: for cell dry weight: second pH treatment 7.5 to 3.5 with HCl (18%) for 15 minutes, raised with 4 M NaOH
[6] = tested on: Chlorella; conditions: pH 3.5 with HCl (37%) for 15 minutes, open raceway pond
[7] = tested on: live bacteria in Chlorella culture; conditions: for bacteria count: pH 3.5 with HCl (37%) for 15 minutes, open raceway pond
[8] = tested on: Cytophaga sp.; conditions: pH treated versus untreated culture, over the life of the cultures

In the case of `Cl` [HCl, hydrochloric acid], the cell dry weight ([1]; 0 h) is reported as 0.80 ± 0.03 g/L, the cell dry weight ([1]; 48 h) is reported as 2.54 ± 0.00 g/L and the cell dry weight ([1]; 96 h) is reported as 3.78 ± 0.00 g/L. For the same compound, the “Cell Dry Weight” value ([2]; 0 h) was 0.89 ± 0.01 g/L, the “Cell Dry Weight” value ([2]; 48 h) was 1.88 ± 0.04 g/L and the “Cell Dry Weight” value ([2]; 96 h) was 2.58 ± 0.01 g/L. For the same compound, the bacteria attachment level ([3]; day 4 (96 h)) was “about 4.5%”, the bacteria attachment ([3]; within 48 hours) was 0% and the “time bacterial attachment remained below 10%” value ([4]; pH treated culture) was “over 100 hours”. The “bacterial attachment in the pH treated culture” value ([4]; within 12 hours, drop from about 50%) was “under 10%”, the “productive life of culture” value ([5]; culture that received one pH treatment) was “approximately 14 days” and the “productive life of culture (lasted until day, then discarded)” value ([5]; culture that received two pH treatments) was ≥ 20 days. For the same compound, the cell dry weight ([5]; 0 h) was 1.05 (g/L), the cell dry weight ([5]; 48 h) was 2.79 g/L and the cell dry weight ([5]; 96 h) was 3.87 g/L. The cell dry weight ([5]; 144 h) was 4.79 g/L, the cell dry weight ([6]; raised to 8.5 with NaOH, 0 h) was 1.2 g/L and the cell dry weight ([6]; 11 h) was 1.4 g/L. For the same compound, the cell dry weight ([6]; 24 h) was 1.6 g/L, the cell dry weight ([6]; 35 h) was 2.2 g/L and the cell dry weight ([6]; 48 h) was 2.5 g/L. It also gave a cell dry weight ([6]; 59 h) of 3.5 g/L, a cell dry weight ([6]; 72 h) of 4.0 g/L and a cell dry weight ([6]; 83 h) of 4.8 g/L. The cell dry weight ([6]; 96 h) was 5.1 g/L, the cell dry weight ([6]; 107 h) was 5.4 g/L and the cell dry weight ([6]; 120 h) was 5.7 g/L. For the same compound, the cell dry weight ([6]; 131 h) was 6.1 g/L, the cell dry weight ([6]; 144 h) was 6.1 g/L and the cell dry weight ([6]; 155 h (after partial harvest)) was 1.9 g/L. For the same compound, the cell dry weight ([6]; 168 h) was 1.8 g/L, the “total bacteria live count lower than the untreated culture” value ([7]; immediately following treatment) was “approximately 2 logs” and the bacteria count ([7]; 0 h) was 4.00E+04 CFU. It also gave a bacteria count ([7]; 24 h) of 1.50E+07 CFU, a bacteria count ([7]; 48 h) of 1.20E+08 CFU and a bacteria count ([7]; 72 h) of 2.20E+08 CFU. For the same compound, the bacteria count ([7]; 96 h) was 1.30E+08 CFU, the bacteria count ([7]; 120 h) was 1.20E+08 CFU and the bacteria count ([7]; 144 h) was 1.50E+08 CFU. The “Cytophaga sp. detection by qPCR” value [8] was “detected in the untreated culture only”.
